Assay results taken from patent publication US20230279016A1, “Tetrahydropyrazolopyrimidines and Related Analogs for Inhibiting YAP/TAZ-TEAD” (THE KATHOLIEKE UNIVERSITEIT LEUVEN, priority 2021, published 2023).

tested on: YAP/TAZ-TEAD transcription; assay: Reporter gene assay for measuring the inhibition of YAP/TAZ-TEAD transcription (TEAD-responsive element luciferase reporter in Hek293T cells); type: cell-based; details: Hek293T cells transiently transfected with TEAD-responsive element luciferase reporter, 24 hours incubation
Outline: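 Hek293T cells transiently transfected with TEAD-responsive luciferase reporter, exposed to compound for 24 h at 37° C/5% CO2, then read by luminescence. Percent inhibition normalized to vehicle (0%) and positive control inhibitor (100%); EC50 reported as activity ranges.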

EC50	SMILES
> 20 µM	C=CC(=O)NCC1CN(S(=O)(=O)c2ccc(C(F)(F)F)cc2)c2ccnn2C1 (centres unmarked) [Cpd. No. 045, N-((4-((4-(trifluoromethyl)phenyl)sulfonyl)-4,5,6,7-tetrahydropyrazolo[1,5-a]pyrimidin-6-yl)methyl)acrylamide]
1 to 20 µM	C=CC(=O)NCC1CN(S(=O)(=O)c2ccc(C(F)(F)F)cc2)c2ccnn2C1 (centres unmarked) [Cpd. No. 045-En1, N-((4-((4-(trifluoromethyl)phenyl)sulfonyl)-4,5,6,7-tetrahydropyrazolo[1,5-a]pyrimidin-6-yl)methyl)acrylamide]
> 20 µM	C=CC(=O)NCC1CN(S(=O)(=O)c2ccc(C(F)(F)F)cc2)c2ccnn2C1 (centres unmarked) [Cpd. No. 045-En2, N-((4-((4-(trifluoromethyl)phenyl)sulfonyl)-4,5,6,7-tetrahydropyrazolo[1,5-a]pyrimidin-6-yl)methyl)acrylamide]

SMILES	EC50
CCC(=O)NCC1Cc2c(cnn2Cc2cccc(C(N)=O)c2)N(c2ccc(C(F)(F)F)cc2)C1 (centres unmarked) [Cpd. No. 082, 3-((6-(propionamide-methyl)-4-(4-(trifluoromethyl)phenyl)-4,5,6,7-tetrahydro-1H-pyrazolo[4,3-b]pyridin-1-yl)methyl)benzamide]	< 1 µM
CCC(=O)NCC1Cc2nn(Cc3cccc(C(N)=O)c3)cc2N(c2ccc(C(F)(F)F)cc2)C1 (centres unmarked) [Cpd. No. 083, 3-((6-(propionamide-methyl)-4-(4-(trifluoromethyl)phenyl)-4,5,6,7-tetrahydro-2H-pyrazolo[4,3-b]pyridin-2-yl)methyl)benzamide]	> 20 µM

same assay, conditions: Homo sapiens, HEK-293T, 24 h, Hek293T cells transiently transfected with TEAD-responsive element luciferase reporter, 24 hours incubation

SMILES	EC50
C=CC(=O)NCC1CN(C(=O)C2CCCCC2)c2ccnn2C1 (centres unmarked) [Cpd. No. 046, N-((4-(cyclohexanecarbonyl)-4,5,6,7-tetrahydropyrazolo[1,5-a]pyrimidin-6-yl)methyl)acrylamide]	1 to 20 µM
C=CC(=O)NCC1CN(C(=O)c2ccccc2)c2ccnn2C1 (centres unmarked) [Cpd. No. 047, N-((4-benzoyl-4,5,6,7-tetrahydropyrazolo[1,5-a]pyrimidin-6-yl)methyl)acrylamide]	> 20 µM
CCC(=O)NCC1CN(Cc2ccc(C(F)(F)F)cc2)c2ccnn2C1 (centres unmarked) [Cpd. No. 050, N-((4-(4-(trifluoro-methyl)benzyl)-4,5,6,7-tetrahydropyrazolo[1,5-a]pyrimidin-6-yl)-methyl)propionamide]	> 20 µM
CS(=O)(=O)NCC1CN(Cc2ccc(C(F)(F)F)cc2)c2ccnn2C1 (centres unmarked) [Cpd. No. 051, N-((4-(4-(trifluoro-methyl)benzyl)-4,5,6,7-tetrahydropyrazolo[1,5-a]pyrimidin-6-yl)-methyl)methanesulfonamide]	> 20 µM
CCC(=O)NCC1CN(Cc2cccc(C(F)(F)F)c2)c2ccnn2C1 (centres unmarked) [Cpd. No. 053, N-((4-(3-(trifluoro-methyl)benzyl)-4,5,6,7-tetrahydropyrazolo[1,5-a]pyrimidin-6-yl)-methyl)propionamide]	> 20 µM
CS(=O)(=O)NCC1CN(Cc2cccc(C(F)(F)F)c2)c2ccnn2C1 (centres unmarked) [Cpd. No. 054, N-((4-(3-(trifluoro-methyl)benzyl)-4,5,6,7-tetrahydropyrazolo[1,5-a]pyrimidin-6-yl)-methyl)methanesulfonamide]	> 20 µM
C=CC(=O)NCC1CN(CC2CCCCC2)c2ccnn2C1 (centres unmarked) [Cpd. No. 055, N-((4-(cyclohexylmethyl)-4,5,6,7-tetrahydropyrazolo[1,5-a]pyrimidin-6-yl)-methyl)acrylamide]	< 1 µM
C=CC(=O)NCC1CN(CC#Cc2ccccc2)c2ccnn2C1 (centres unmarked) [Cpd. No. 056, N-((4-(3-phenylprop-2-yn-1-yl)-4,5,6,7-tetrahydropyrazolo[1,5-a]pyrimidin-6-yl)-methyl)acrylamide]	< 1 µM
C#CCN1CC(CNC(=O)C=C)Cn2nccc21 (centres unmarked) [Cpd. No. 057, N-((4-(prop-2-yn-1-yl)-4,5,6,7-tetrahydropyrazolo[1,5-a]pyrimidin-6-yl)-methyl)acrylamide]	> 20 µM
CCC(=O)NC1CN(c2ccc(C(F)(F)F)cc2)c2ccnn2C1 (centres unmarked) [Cpd. No. 062, N-(4-(4-(trifluoromethyl)phenyl)-4,5,6,7-tetrahydropyrazolo[1,5-a]pyrimidin-6-yl)propionamide]	> 20 µM
C=CC(=O)NC1CN(c2ccc(C(F)(F)F)c(F)c2)c2ccnn2C1 (centres unmarked) [Cpd. No. 064, N-(4-(3-fluoro-4-(trifluoromethyl)phenyl)-4,5,6,7-tetrahydropyrazolo[1,5-a]pyrimidin-6-yl)acrylamide]	< 1 µM

Continued, values first:

EC50	SMILES
< 1 µM	C=CC(=O)NC1CN(c2ccc(Cl)cc2)c2ccnn2C1 (centres unmarked) [Cpd. No. 066, N-(4-(4-chlorophenyl)-4,5,6,7-tetrahydropyrazolo[1,5-a]pyrimidin-6-yl)acrylamide]
> 20 µM	CS(=O)(=O)NC1CN(c2ccc(C(F)(F)F)cc2)c2ccnn2C1 (centres unmarked) [Cpd. No. 067, N-(4-(4-(trifluoromethyl)phenyl)-4,5,6,7-tetrahydropyrazolo[1,5-a]pyrimidin-6-yl)methanesulfonamide]
> 20 µM	CCC(=O)NCC1Cc2c(cnn2C)N(c2ccc(C(F)(F)F)cc2)C1 (centres unmarked) [Cpd. No. 072, N-((1-methyl-4-(4-(trifluoromethyl)phenyl)-4,5,6,7-tetrahydro-1H-pyrazolo[4,3-b]pyridin-6-yl)methyl)propionamide]
< 1 µM	CCC(=O)NCC1Cc2nn(C)cc2N(c2ccc(C(F)(F)F)cc2)C1 (centres unmarked) [Cpd. No. 073, N-((2-methyl-4-(4-(trifluoromethyl)phenyl)-4,5,6,7-tetrahydro-2H-pyrazolo[4,3-b]pyridin-6-yl)methyl)propionamide]
> 20 µM	CCC(=O)NCC1Cc2c(cnn2C)N(c2ccc(OC(F)(F)F)cc2)C1 (centres unmarked) [Cpd. No. 074, N-((1-methyl-4-(4-(trifluoromethoxy)phenyl)-4,5,6,7-tetrahydro-1H-pyrazolo[4,3-b]pyridin-6-yl)methyl)propionamide]
1 to 20 µM	CCC(=O)NCC1Cc2nn(C)cc2N(c2ccc(OC(F)(F)F)cc2)C1 (centres unmarked) [Cpd. No. 075, N-((2-methyl-4-(4-(trifluoromethoxy)phenyl)-4,5,6,7-tetrahydro-2H-pyrazolo[4,3-b]pyridin-6-yl)methyl)propionamide]
> 20 µM	Cn1ncc2c1CC(CNS(C)(=O)=O)CN2c1ccc(C(F)(F)F)cc1 (centres unmarked) [Cpd. No. 076, N-((1-methyl-4-(4-(trifluoromethyl)phenyl)-4,5,6,7-tetrahydro-1H-pyrazolo[4,3-b]pyridin-6-yl)methyl)methanesulfonamide]
1 to 20 µM	Cn1cc2c(n1)CC(CNS(C)(=O)=O)CN2c1ccc(C(F)(F)F)cc1 (centres unmarked) [Cpd. No. 077, N-((2-methyl-4-(4-(trifluoromethyl)phenyl)-4,5,6,7-tetrahydro-2H-pyrazolo[4,3-b]pyridin-6-yl)methyl)methanesulfonamide]
> 20 µM	Cn1ncc2c1CC(CNS(C)(=O)=O)CN2c1ccc(OC(F)(F)F)cc1 (centres unmarked) [Cpd. No. 078, N-((1-methyl-4-(4-(trifluoromethoxy)phenyl)-4,5,6,7-tetrahydro-1H-pyrazolo[4,3-b]pyridin-6-yl)methyl)methanesulfonamide]
1 to 20 µM	Cn1cc2c(n1)CC(CNS(C)(=O)=O)CN2c1ccc(OC(F)(F)F)cc1 (centres unmarked) [Cpd. No. 079, N-((2-methyl-4-(4-(trifluoromethoxy)phenyl)-4,5,6,7-tetrahydro-2H-pyrazolo[4,3-b]pyridin-6-yl)methyl)methanesulfonamide]
> 20 µM	C[C@H](NC(=O)NCC1CN(c2ccc(C(F)(F)F)cc2)c2ccnn2C1)c1ccccn1 (stereo partly drawn) [Cpd. No. 091, 1-((S)-1-(pyridin-2-yl)ethyl)-3-((4-(4-(trifluoromethyl)phenyl)-4,5,6,7-tetrahydropyrazolo[1,5-a]pyrimidin-6-yl)methyl)urea]
> 20 µM	CNC(=O)C1CN(c2ccc(C(F)(F)F)cc2)c2ccnn2C1 (centres unmarked) [Cpd. No. 092, N-methyl-4-(4-(trifluoromethyl)phenyl)-4,5,6,7-tetrahydropyrazolo[1,5-a]pyrimidine-6-carboxamide]
> 20 µM	CS(=O)(=O)NC(=O)C1CN(c2ccc(C(F)(F)F)cc2)c2ccnn2C1 (centres unmarked) [Cpd. No. 093, N-(methylsulfonyl)-4-(4-(trifluoromethyl)phenyl)-4,5,6,7-tetrahydropyrazolo[1,5-a]pyrimidine-6-carboxamide]
< 1 µM	C=CC(=O)NCC1CN(c2ccc(C(F)(F)F)cc2)c2cnc(C(F)(F)F)n2C1 (centres unmarked) [Cpd. No. 094, N-((6-(trifluoromethyl)-1-(4-(trifluoromethyl)phenyl)-1,2,3,4-tetrahydroimidazo[1,5-a]pyrimidin-3-yl)methyl)acrylamide]

tested on: NCI-H226 mesothelioma cell line; assay: Mesothelioma cell line proliferation assay, NCI-H226; type: cell-based; details: Homo sapiens, NCI-H226, 144 h, NCI-H226, 6 days with compound, cell viability by ATPlite
Description: (§1) Mesothelioma cell lines, NCI-H226 and NCI-H2052 (all sourced from the ATCC cell culture collection) are plated in 96-well plates (Corning® 96 Well White Polystyrene Microplate clear flat bottom, white polystyrene (TC-Treated)), at 1500 cells/well in full medium (RPMI 1640 ATCC modification with L-glutamine, HEPES, Phenol Red, Sodium Pyruvate, High glucose, Low sodium bicarbonate and 10% fetal bovine serum). Cells are incubated overnight at 37° C. in an incubator with 5% CO2. Then compounds, dissolved in DMSO, are added in dose-response. Cells are incubated with compound dilutions for another 6 days at 37° C. in an incubator with 5% CO2. Cell viability is quantitated using the ATPlite kit (Perkin-Elmer) and the luminescence is read-out using an Envision instrument (Perkin-Elmer). The amount of relative light units produced using the ATPlite kit is used to calculated percent of inhibition.
(§2) The activities of example compounds tested are depicted in the table below. The activity ranges A, B and C refer to EC50 values in the mesothelioma cell line proliferation assay as described as follows: “A”: EC50 <1 μM; “B” : 1 μM EC50 ≤10 μM and “C” : EC50 >10 μM. NT: not tested.

EC50	SMILES
1 to 10 µM	C=CC(=O)NCC1CN(c2cccc(C(F)(F)F)c2)c2ccnn2C1 (single isomer, unassigned) [Cpd. No. 003-En1, (R)- or (S)-N-((4-(3-(trifluoromethyl)phenyl)-4,5,6,7-tetrahydropyrazolo[1,5-a]pyrimidin-6-yl)methyl)acrylamide]

tested on: NCI-H2052 mesothelioma cell line; assay: Mesothelioma cell line proliferation assay, NCI-H2052; type: cell-based; details: Homo sapiens, NCI-H2052, 144 h, NCI-H2052, 6 days with compound, cell viability by ATPlite
Description: as §1, §2

EC50	SMILES
> 10 µM	C=CC(=O)NCC1CN(c2cccc(C(F)(F)F)c2)c2ccnn2C1 (single isomer, unassigned) [Cpd. No. 003-En1, (R)- or (S)-N-((4-(3-(trifluoromethyl)phenyl)-4,5,6,7-tetrahydropyrazolo[1,5-a]pyrimidin-6-yl)methyl)acrylamide]
